Reference: patent US5958885A, “Peptide and formulations thereof inhibiting elevations of triglyceride levels in blood” (Hankyu Kyoei Bussan Co., Ltd., priority 1996, dated 1999)
Residues, ends and D or L forms follow the SMILES beside them.

Tests used:
serum TG levels = test: Serum TG elevation inhibiting action, peptide given 1 hr after olive oil; format: in vivo, male ICR mice; details: for ID50 (dose which inhibits in vivo 50% of serum TG elevations): olive oil 18 g/kg oral, peptide oral 1 hr later, serum TG another 1 hr later; for Specific Activity (ratio to mg protein): relative to globin proteolysate (GD) = 1, Table 3
Protocol: Subsequently, serum TG elevation inhibiting action was examined as described below on the peptide (VVYP) having the amino acid sequence shown in SEQ ID NO: 1 synthesized in Example 2, peptides Val-Tyr-Pro (vYP) and Val-Thr-Leu (VTL) synthesized in the same manner as described in Example 2, and the globin proteolysate (GD) obtained in the Reference Example.
Olive oil (18 g/kg body weight) was administered orally to male ICR mice (6 week old, body weight: 25-28 g) which fasted for an overnight. One hour thereafter, an aqueous solution of the above peptide (0.3 ml/mouse) was administered orally. […] A dose-response curve was obtained from the dose of the peptide and inhibition rate of TG, and the 50% inhibition dose ID50 was calculated. Then, the activity of individual peptides was compared with each other.

[1] = system: pepsin (artificial gastric juice); test: In vitro stability against digestive enzymes, artificial gastric juice; format: in vitro ADME; details: for Ratio of recovery: after pepsin in 0.1 N HCl, 37° C., 4 hr, HPLC peak area, before treatment = 100
Protocol: (§1) In vitro stability test against digestive enzymes was conducted on the peptide (VVYP) having the amino acid sequence shown in SEQ ID NO: 1 synthesized in Example 2 and peptides Val-Tyr-Pro (VYP) and Val-Thr-Leu (VTL) synthesized in the same manner as described in Example 2.
(§2) Briefly, to 127.5 ml of 0.1 N HCl solution of the above VVYP, VYP or VTL, 22.5 ml of 0.67 mg/ml pepsin (artificial gastric juice) dissolved in 0.1 N HCl was added and reacted at 37° C. for 4 hr. Thereafter, 75 ml of 0.53 mg/ml pancreatin (artificial pancreatic juice) dissolved in […] of 0.5 N borate buffer (pH 8.0) was added thereto and reacted at 37° C. for 2 hr. Samples before digestion with artificial gastric juice, after digestion with artificial gastric juice, and after digestion with artificial pancreatic juice were analyzed under the following conditions.
(§3) Equipment used: HPLC (Waters; LC Modulel)
(§4) Column: SuperPac Pep-S, 5 μm (PHARMACIA K.K.)
(§5) Mobile phase A: 0.1% trifluoroacetic acid B: Acetonitrile-water (50:50, containing 0.1% tri-fluoroacetic acid)
(§6) Flow rate: 0.8 ml/min (VYP, VTL), 0.4 ml/min (VVYP)
(§7) Detection wavelength: 220 nm
(§8) Temperature: room temperature
(§9) Amount applied: 20 μl of 50-fold dilution

male and female ICR mice = test: Toxicological study, oral administration; format: in vivo; details: 10 g/kg body weight or more (maximum possible dose)
Protocol: The peptide (VVYP) having the amino acid sequence shown in SEQ ID NO: 1 synthesized in Example 2 was administered orally to male and female ICR mice in an amount of 10 g/kg body weight or more (maximum possible dose).

[2] = system: pancreatin (artificial pancreatic juice); test: In vitro stability against digestive enzymes, artificial gastric juice then artificial pancreatic juice; format: in vitro ADME; details: for HPLC peak of the peptide after digestion: after digestion with artificial gastric and pancreatic juices; for Ratio of recovery: after pepsin 37° C. 4 hr, then pancreatin pH 8.0, 37° C., 2 hr, HPLC peak area, before treatment = 100
Protocol: as §1, §2, §3, §4, §5, §6, §7, §8, §9

| HPLC peak of the peptide after digestion ([1]; after digestion with artificial gastric juice) | SMILES | ID50 (dose which inhibits in vivo 50% of serum TG elevations) (serum TG levels) [mg protein/mouse] | Specific Activity (ratio to mg protein) (serum TG levels) | Death (male and female ICR mice) | Ratio of recovery [1] | HPLC peak of the peptide after digestion [2] | Ratio of recovery [2] |
| --- | --- | --- | --- | --- | --- | --- | --- |
| disappeared | CC(C)C[C@H](NC(=O)[C@@H](NC(=O)[C@@H](N)C(C)C)[C@@H](C)O)C(=O)O [VTL, Val-Thr-Leu] (H-Val-Thr-Leu-OH) | 0.05 | 448 | – | – | – | – |
| – | CC(C)[C@H](N)C(=O)N[C@H](C(=O)N[C@@H](Cc1ccc(O)cc1)C(=O)N1CCC[C@H]1C(=O)O)C(C)C [VVYP, Val-Val-Tyr-Pro] (H-VVYP-OH) | – | 6500 | no death occurred | 108 | remained | 101 |
| – | CC(C)[C@H](N)C(=O)N[C@@H](Cc1ccc(O)cc1)C(=O)N1CCC[C@H]1C(=O)O [VYP, Val-Tyr-Pro] (H-Val-Tyr-Pro-OH) | 0.02 | 1130 | – | 108 | remained | 109 |
